Here are results for 30 compounds from patent US8716281B2, “Pyrimidine compounds that inhibit anaplastic lymphoma kinase” (Amgen Inc., priority 2010, dated 2014).

Molecules are shown by their SMILES. Where only a bound is given, the exact number is not on record here.

This experiment deals with T1, wild-type human ALK cytoplasmic domain (amino acids 1058-1620) (Homo sapiens, UniProt Q9UM73).
T1 construct: The cytoplasmic domain (amino acids 1058-1620) of wild-type human ALK; GST (N); made in house; host or cells: SF9 insect cells
T1 sequence (Q9UM73 1058-1620): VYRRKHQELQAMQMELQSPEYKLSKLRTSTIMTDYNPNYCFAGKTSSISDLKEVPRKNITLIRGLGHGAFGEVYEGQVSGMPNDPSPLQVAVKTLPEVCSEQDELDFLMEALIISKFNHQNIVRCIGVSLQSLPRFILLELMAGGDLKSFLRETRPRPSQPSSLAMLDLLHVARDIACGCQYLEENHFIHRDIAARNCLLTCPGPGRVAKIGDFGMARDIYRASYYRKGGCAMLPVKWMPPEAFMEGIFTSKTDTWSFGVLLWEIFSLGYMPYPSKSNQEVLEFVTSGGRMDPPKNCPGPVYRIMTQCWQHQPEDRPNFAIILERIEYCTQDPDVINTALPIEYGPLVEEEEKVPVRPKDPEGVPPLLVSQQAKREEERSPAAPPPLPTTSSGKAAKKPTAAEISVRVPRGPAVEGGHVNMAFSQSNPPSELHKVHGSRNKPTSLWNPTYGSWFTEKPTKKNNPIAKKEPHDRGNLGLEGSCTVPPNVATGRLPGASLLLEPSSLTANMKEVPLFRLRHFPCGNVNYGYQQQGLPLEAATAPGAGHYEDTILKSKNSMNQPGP
In words: ALK Inhibition in Enzyme Assay (Lance TR-FRET). Type of experiment: biochemical. As to conditions: 2 nM enzyme, ATP at 40 μM (Km apparent), 90 minutes, mean of three replicates; read-out: ALK IC50. The procedure: ALK Inhibition in Enzyme Assay
Kinase activity of the purified protein was assessed using a Lance® TR-FRET assay. […] The reaction was allowed to proceed for 90 minutes at room temperature and was then terminated with 20 mM EDTA in 50 mM Tris (pH 7.5), 100 mM NaCl, 0.05% BSA, and 0.1% Tween-20. Phosphorylation of the peptide substrate was detected using the Lance® detection reagents streptavidin-allophycocyanin (SA-APC) and Eu-W1024 anti-phosphotyrosine antibody (PT66) from Perkin Elmer Life Sciences (Waltham, Mass.). The plates were read on a RUBY star plate reader (BMG LABTECH, Cary, N.C.) with an excitation wavelength of 320 nm.
A general note: In TR-FRET formats the signal depends on donor and acceptor labels being close together.

By IC50 is commonly meant the concentration that inhibits the measured activity by half. In the case of `COc1ccc(CNC(=O)[C@H]2CCCN(c3ccnc(Nc4cc(OC)c(OC)c(OC)c4)n3)C2)cc1` [Example 15, (S)-N-((4-(methyloxy)phenyl)methyl)-1-(2-((3,4,5-tris(methyloxy)phenyl)amino)-4-pyrimidinyl)-3-piperidinecarboxamide], the IC50 was 100 to 1000 nM.
For `COc1cc(Nc2nccc(N3CCC[C@@H](C(=O)NCc4ccncc4)C3)n2)cc(OC)c1OC` [Example 18, (R)-N-(4-pyridinylmethyl)-1-(2-((3,4,5-trimethoxyphenyl)amino)-4-pyrimidinyl)-3-piperidinecarboxamide] the value was 5000 to 10000 nM; for `COc1cc(Nc2nccc(N3CCC[C@@H](C(=O)NCc4ccc(F)cc4)C3)n2)cc(OC)c1OC` [Example 19, (R)-N-(4-fluorobenzyl)-1-(2-((3,4,5-trimethoxyphenyl)amino)-4-pyrimidinyl)-3-piperidinecarboxamide], 1000 to 5000 nM; for `COc1cc(Nc2nccc(N3CCC[C@H](C(=O)NC(C)c4ccc(Br)cc4)C3)n2)cc(OC)c1OC` (stereo partly drawn) [Example 26, (S)-N-(1-(4-bromophenyl)ethyl)-1-(2-((3,4,5-trimethoxyphenyl)amino)-4-pyrimidinyl)-3-piperidinecarboxamide], 100 to 1000 nM.
In the case of `COc1cc(Nc2nccc(N3CCC[C@H](C(=O)N[C@@H](C)c4ccc(Br)cc4)C3)n2)cc(OC)c1OC` [Example 27, (S)-N-((S)-1-(4-bromophenyl)ethyl)-1-(2-((3,4,5-trimethoxyphenyl)amino)-4-pyrimidinyl)-3-piperidinecarboxamide] it was 100 to 1000 nM; in that of `COc1cc(Nc2nccc(N3CCC[C@H](C(=O)NCc4cc(Cl)ccc4C)C3)n2)cc(OC)c1OC` [Example 28, (S)-N-(5-chloro-2-methylbenzyl)-1-(2-((3,4,5-trimethoxyphenyl)amino)-4-pyrimidinyl)-3-piperidinecarboxamide], 50 to 100 nM; in that of `COc1cc(Nc2nccc(N3CCC[C@H](C(=O)NCc4ccc(Cl)cc4F)C3)n2)cc(OC)c1OC` [Example 29, (S)-N-(4-chloro-2-fluorobenzyl)-1-(2-((3,4,5-trimethoxyphenyl)amino)-4-pyrimidinyl)-3-piperidinecarboxamide], 50 to 100 nM.
For `COc1cc(Nc2nccc(N3CCC[C@H](C(=O)NC(c4ccccc4)C(F)(F)F)C3)n2)cc(OC)c1OC` (stereo partly drawn) [Example 30, (S)-N-(2,2,2-trifluoro-1-phenylethyl)-1-(2-((3,4,5-trimethoxyphenyl)amino)-4-pyrimidinyl)-3-piperidinecarboxamide], the IC50 lay within 1000 to 5000 nM.
For `COc1cc(Nc2nccc(N3CCC[C@H](C(=O)NCc4cccc5ccccc45)C3)n2)cc(OC)c1OC` [Example 31, (S)-N-(1-naphthalenylmethyl)-1-(2-((3,4,5-trimethoxyphenyl)amino)-4-pyrimidinyl)-3-piperidinecarboxamide] the value was 1000 to 5000 nM; for `COc1ccccc1CNC(=O)[C@H]1CCCN(c2ccnc(Nc3cc(OC)c(OC)c(OC)c3)n2)C1` [Example 32, (S)-N-(2-methoxybenzyl)-1-(2-((3,4,5-trimethoxyphenyl)amino)-4-pyrimidinyl)-3-piperidinecarboxamide], 5000 to 10000 nM; for `COc1cc(Nc2nccc(N3CCC[C@H](C(=O)NCc4ccc(C(F)(F)F)cc4)C3)n2)cc(OC)c1OC` [Example 34, (S)-N-(4-(trifluoromethyl)benzyl)-1-(2-((3,4,5-trimethoxyphenyl)amino)-4-pyrimidinyl)-3-piperidinecarboxamide], 50 to 100 nM.
In the case of `COc1cc(Nc2nccc(N3CCC[C@H](C(=O)NCc4ccccc4C(F)(F)F)C3)n2)cc(OC)c1OC` [Example 37, (S)-N-(2-(trifluoromethyl)benzyl)-1-(2-((3,4,5-trimethoxyphenyl)amino)-4-pyrimidinyl)-3-piperidinecarboxamide] it was 5000 to 10000 nM; in that of `COc1cccc(CNC(=O)[C@H]2CCCN(c3ccnc(Nc4cc(OC)c(OC)c(OC)c4)n3)C2)c1` [Example 38, (S)-N-(3-methoxybenzyl)-1-(2-((3,4,5-trimethoxyphenyl)amino)-4-pyrimidinyl)-3-piperidinecarboxamide], 100 to 1000 nM.
In the case of `COc1cc(Nc2nccc(N3CCC[C@H](C(=O)NC4CCc5ccccc54)C3)n2)cc(OC)c1OC` (stereo partly drawn) [Example 39, (S)-N-(2,3-dihydro-1H-inden-1-yl)-1-(2-((3,4,5-trimethoxyphenyl)amino)-4-pyrimidinyl)-3-pipcridinecarboxamide] it was 1000 to 5000 nM; in that of `COc1cc(Nc2nccc(N3CCC[C@H](C(=O)NCc4ccc(N(C)C)cc4)C3)n2)cc(OC)c1OC` [Example 42, (S)-N-(4-(dimethylamino)benzyl)-1-(2-((3,4,5-trimethoxyphenyl)amino)-4-pyrimidinyl)-3-piperidinecarboxamide], 1000 to 5000 nM.
In the case of `COc1cc(Nc2nccc(N3CCC[C@H](C(=O)NC(C#N)c4ccccc4)C3)n2)cc(OC)c1OC` (stereo partly drawn) [Example 43, (S)-N-(cyano(phenyl)methyl)-1-(2-((3,4,5-trimethoxyphenyl)amino)-4-pyrimidinyl)-3-piperidinecarboxamide], the concentration for half-maximal inhibition (IC50) lay in the range of 100 to 1000 nM.
For `COc1cc(Nc2nccc(N3CCC[C@H](C(=O)NCc4ccc5c(c4)CCO5)C3)n2)cc(OC)c1OC` [Example 44, (S)-N-(2,3-dihydro-1-bcnzofuran-5-ylmethyl)-1-(2-((3,4,5-trimethoxyphenyl)amino)-4-pyrimidinyl)-3-piperidinecarboxamide] the value was 100 to 1000 nM; for `COc1cc(Nc2nccc(N3CCC[C@H](C(=O)NC(C)c4ccc5[nH]ccc5c4)C3)n2)cc(OC)c1OC` (stereo partly drawn) [Example 45, (S)-N-(1-(1H-indol-5-yl)ethyl)-1-(2-((3,4,5-trimethoxyphenyl)amino)-4-pyrimidinyl)-3-piperidinecarboxamide], 100 to 1000 nM.
Turning to `COc1cc(Nc2nccc(N3CCC[C@H](C(=O)NCc4ccc(-n5cccn5)cc4)C3)n2)cc(OC)c1OC` [Example 46, (S)-N-(4-(1H-pyrazol-1-yl)benzyl)-1-(2-((3,4,5-trimethoxyphenyl)amino)-4-pyrimidinyl)-3-piperidinecarboxamide], the 50% inhibitory concentration (IC50) lay in the range of 1000 to 5000 nM.
In the case of `COc1cc(Nc2nccc(N3CCC[C@H](C(=O)NCc4ccc(Br)cc4)C3)n2)cc(OC)c1OC` [Example 47, (S)-N-(4-bromobenzyl)-1-(2-((3,4,5-trimethoxyphenyl)amino)-4-pyrimidinyl)-3-piperidinecarboxamide] it was 50 to 100 nM; in that of `COc1cccc([C@@H](C)NC(=O)[C@H]2CCCN(c3ccnc(Nc4cc(OC)c(OC)c(OC)c4)n3)C2)c1` [Example 48, (S)-N-((R)-1-(3-methoxyphenyl)ethyl)-1-(2-((3,4,5-trimethoxyphenyl)amino)-4-pyrimidinyl)-3-piperidinecarboxamide], 1000 to 5000 nM.
In the case of `COc1cc(Nc2nccc(N3CCC[C@H](C(=O)NCc4ccccc4Br)C3)n2)cc(OC)c1OC` [Example 49, (S)-N-(2-bromobenzyl)-1-(2-((3,4,5-trimethoxyphenyl)amino)-4-pyrimidinyl)-3-piperidinecarboxamide] it was 1000 to 5000 nM.
`COc1cc(Nc2nccc(N3CCC[C@H](C(=O)NC(C)c4ccc(F)cc4)C3)n2)cc(OC)c1OC` (stereo partly drawn) [Example 51, (S)-N-(1-(4-fluorophenyl)ethyl)-1-(2-((3,4,5-trimethoxyphenyl)amino)-4-pyrimidinyl)-3-piperidinecarboxamide]: the half-inhibitory concentration (IC50) was 100 to 1000 nM.
Turning to `COc1cc(Nc2nccc(N3CCC[C@H](C(=O)NC(C)c4ccc(O)cc4)C3)n2)cc(OC)c1OC` (stereo partly drawn) [Example 53, (S)-N-(1-(4-hydroxyphenyl)ethyl)-1-(2-((3,4,5-trimethoxyphenyl)amino)-4-pyrimidinyl)-3-piperidinecarboxamide], the half-inhibitory concentration (IC50) fell in the range of 5000 to 10000 nM.
In the case of `COc1cc(Nc2nccc(N3CCC[C@H](C(=O)NC(C)(C)c4ccccc4)C3)n2)cc(OC)c1OC` [Example 54, (S)-N-(1-methyl-1-phenylethyl)-1-(2-((3,4,5-trimethoxyphenyl)amino)-4-pyrimidinyl)-3-piperidinecarboxamide] it was 1000 to 5000 nM; in that of `COc1cc(Nc2nccc(N3CCC[C@H](C(=O)NC(C)c4ccc(C)cc4)C3)n2)cc(OC)c1OC` (stereo partly drawn) [Example 55, (S)-N-(1-(4-methylphenyl)ethyl)-1-(2-((3,4,5-trimethoxyphenyl)amino)-4-pyrimidinyl)-3-piperidinecarboxamide], 100 to 1000 nM.
For `COc1cc(Nc2nccc(N3CCC[C@H](C(=O)NCc4ccc(Br)cc4F)C3)n2)cc(OC)c1OC` [Example 56, (S)-N-(4-bromo-2-fluorobenzyl)-1-(2-((3,4,5-trimethoxyphenyl)amino)-4-pyrimidinyl)-3-piperidinecarboxamide] the value was < 50 nM.
In the case of `COc1cc(Nc2nccc(N3CCC[C@H](C(=O)NCc4ccc(F)cc4F)C3)n2)cc(OC)c1OC` [Example 57, (S)-N-(2,4-difluorobenzyl)-1-(2-((3,4,5-trimethoxyphenyl)amino)-4-pyrimidinyl)-3-piperidinecarboxamide] it was 50 to 100 nM; in that of `COc1cc(Nc2nccc(N3CCC[C@H](C(=O)NCc4cc(Br)ccc4F)C3)n2)cc(OC)c1OC` [Example 58, (S)-N-(5-bromo-2-fluorobenzyl)-1-(2-((3,4,5-trimethoxyphenyl)amino)-4-pyrimidinyl)-3-piperidinecarboxamide], < 50 nM; in that of `COc1cc(Nc2nccc(N3CCC[C@H](C(=O)NCc4nc(C)cs4)C3)n2)cc(OC)c1OC` [Example 59, (S)-N-((4-methyl-1,3-thiazol-2-yl)methyl)-1-(2-((3,4,5-trimethoxyphenyl)amino)-4-pyrimidinyl)-3-piperidinecarboxamide], 1000 to 5000 nM.
